This note sets out measurements from patent US20250277030A1, “ANTI-NAPI2B ANTIBODIES AND METHODS OF USE” (Zymeworks BC Inc., priority 2022, published 2025).

In one assay the test system is cynomolgus NaPi2b. Nature of the assay: Flow cytometry binding to HEK293-6e cells transfected with cynomolgus NaPi2b (Example 5). Conditions: transfected HEK293-6e cells, 18-24 hours at 4° C. The protocol: The binding cross-reactivity of humanized antibody variant v29456 to human, cynomolgus and mouse NaPi2b was assessed by flow cytometry using HEK293-6e transfected cells.
Briefly, HEK293-6e cells were transfected for ˜24 hours to transiently express human NaPi2b, cynomolgus or mouse NaPi2b, at 1 μg of DNA per 1 million cells. Following transfection, 50,000 cells per well were seeded in V-bottom 96-well plates and incubated with 200 nM of primary antibody for 18-24 hours at 4° C. to prevent internalization. Post-incubation, cells were washed and stained with anti-Human IgG Fc AF647 conjugate (Jackson Immuno Research Labs, West Grove, PA, Cat. No. 109-605-098, Lot. No. 124868) at 4° C. for 1 hour. Following staining and washing, fluorescence was detected by flow cytometry on BD LSRFortessa™ Cell Analyzer (BD Biosciences, Franklin Lake, NJ) with 10,000 minimum events collected per well. The AF647/APC-A GeoMean (fluorescence signal geometric mean, proportional to anti-Human AF647 binding) was calculated for the live singlet cell population for each primary antibody using FlowJo™ v8 software (BD Biosciences, Franklin Lake, NJ). The Bmax and Kd of each primary antibody were calculated using GraphPad Prism Version 9 (GraphPad Software, San Diego, CA)

The next assay addresses T1, human NaPi2b (Homo sapiens, UniProt O95436).
T1 construct: host or cells: HEK293-6e
T1 sequence (O95436 1-690): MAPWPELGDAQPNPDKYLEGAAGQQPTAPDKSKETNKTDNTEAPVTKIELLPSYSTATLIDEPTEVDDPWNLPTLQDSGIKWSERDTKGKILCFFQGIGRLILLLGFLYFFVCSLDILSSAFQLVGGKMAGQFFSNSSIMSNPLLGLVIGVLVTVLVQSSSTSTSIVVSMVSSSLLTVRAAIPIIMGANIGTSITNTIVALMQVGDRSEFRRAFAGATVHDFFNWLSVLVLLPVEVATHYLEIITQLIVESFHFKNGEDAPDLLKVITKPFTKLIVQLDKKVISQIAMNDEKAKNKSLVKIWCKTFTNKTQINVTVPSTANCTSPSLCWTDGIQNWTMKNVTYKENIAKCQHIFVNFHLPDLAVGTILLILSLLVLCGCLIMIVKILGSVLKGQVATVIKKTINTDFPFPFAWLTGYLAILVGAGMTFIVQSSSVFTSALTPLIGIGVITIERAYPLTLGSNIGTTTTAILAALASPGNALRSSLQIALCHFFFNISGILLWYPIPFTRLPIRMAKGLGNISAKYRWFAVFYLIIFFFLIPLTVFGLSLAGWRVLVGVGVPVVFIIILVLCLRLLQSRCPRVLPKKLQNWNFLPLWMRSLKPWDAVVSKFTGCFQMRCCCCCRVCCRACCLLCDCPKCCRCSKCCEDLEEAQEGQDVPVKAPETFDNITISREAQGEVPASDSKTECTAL
The experiment in a line: Competition binding (epitope binning) by flow cytometry on HEK293-6e cells expressing human NaPi2b. Conditions: unlabeled competitor antibody 100 μg/mL, GFP- population. The protocol:
Binding was assessed by flow cytometry using HEK293-6e cells as described below.
HEK293-6e cells were transfected for ˜24 hours to transiently express human NaPi2b (1 μg of pTT5-NaPi2b per 1 million cells) or transfected with GFP (ATUM, Menlo Park, CA; pD2610-v23, also 1 μg of DNA per 1 million cells). Following transfection, human NaPi2b-expressing HEK296-6e cells and transfected GFP-expressing HEK296-6e cells were mixed at 4:1 ratio. Each well of a V-bottom 96-well plate was seeded with 100,000 cells of the mixture and incubated with 100 μg/mL of unlabeled competitor anti-NaPi2b antibody for an hour on ice. Post incubation, cells were washed and stained with 1 μg/mL of AF647-conjugated anti-NaPi2b detection antibodies for an hour on ice. Following staining and washing, fluorescence was detected by flow cytometry on a BD LSRFortessa™ Cell Analyzer (BD Biosciences, Franklin Lake, NJ) with 10,000 minimum events collected per well. The AF647/APC-A GeoMean (fluorescence signal geometric mean, proportional to anti-Human AF647 binding) was calculated for the FITC/GFP negative live cell population and using FlowJo™ Version 10.8.1 (BD Biosciences, Franklin Lake, NJ). Percentage inhibition was calculated using the following formula: […]

Another assay concerns OVCAR-3 cells. The experiment in a line: In vitro cytotoxicity, 2D monolayer, CellTiter-Glo, OVCAR-3. It counts as cell-based, human. Conditions: OVCAR-3, 4 days; IC = Incomplete Curve. On the procedure:
(§1) The cytotoxicity as measured by cell growth inhibition of the humanized variant v29456 (H1L2) conjugated to various drug-linkers were assessed in a panel of NaPi2b-expressing cell lines as described below. Cell lines used were OVCAR-3 (ovarian carcinoma), IGROV-1 (ovarian carcinoma), and HCC-78 (lung carcinoma). ADCs with antibody palivizumab (anti-RSV) (v22277) were used as non-targeted controls.
(§2) OVCAR-3 were cultured in RPMI 1640 Medium, ATCC modification (Thermo Fisher Scientific, Waltham, MA) supplemented with 20% fetal bovine serum (FBS) (Thermo Fisher Scientific, Waltham, MA) and 0.01 μg/mL human insulin (Sigma-Aldrich, Oakville, ON). […] After incubation, CellTiter-Glo® reagent (Promega Corporation, Madison, WI) was added in all wells and luminescence corresponding to ATP present in each well was measured using a Synergy™H1 plate reader (BioTek Instruments, Winooski, VT). Percent cytotoxicity values were calculated by the following formula: (1−(Luminescence of Treated Cells/Average Luminescence of Untreated Cells))×100, and plotted against test article concentration using GraphPad Prism 9 software (GraphPad Software, San Diego, CA). EC50 values were calculated based on a non-linear regression log(agonist) versus response, variable slope (four parameters) by GraphPad Prism 9.

In a further assay the test system is IGROV-1 cells. Nature of the assay: In vitro cytotoxicity, 2D monolayer, CellTiter-Glo, IGROV-1. In kind it is cell-based, human. Conditions: IGROV-1, 4 days. On the procedure: as §1, §2
Another assay has as its system HCC-78 cells. Nature of the assay: In vitro cytotoxicity, 2D monolayer, CellTiter-Glo, HCC-78. Conditions: HCC-78, 4 days. It counts as cell-based, human. The protocol:
as §1, §2

Chain of cynomolgus NaPi2b (as listed by the source): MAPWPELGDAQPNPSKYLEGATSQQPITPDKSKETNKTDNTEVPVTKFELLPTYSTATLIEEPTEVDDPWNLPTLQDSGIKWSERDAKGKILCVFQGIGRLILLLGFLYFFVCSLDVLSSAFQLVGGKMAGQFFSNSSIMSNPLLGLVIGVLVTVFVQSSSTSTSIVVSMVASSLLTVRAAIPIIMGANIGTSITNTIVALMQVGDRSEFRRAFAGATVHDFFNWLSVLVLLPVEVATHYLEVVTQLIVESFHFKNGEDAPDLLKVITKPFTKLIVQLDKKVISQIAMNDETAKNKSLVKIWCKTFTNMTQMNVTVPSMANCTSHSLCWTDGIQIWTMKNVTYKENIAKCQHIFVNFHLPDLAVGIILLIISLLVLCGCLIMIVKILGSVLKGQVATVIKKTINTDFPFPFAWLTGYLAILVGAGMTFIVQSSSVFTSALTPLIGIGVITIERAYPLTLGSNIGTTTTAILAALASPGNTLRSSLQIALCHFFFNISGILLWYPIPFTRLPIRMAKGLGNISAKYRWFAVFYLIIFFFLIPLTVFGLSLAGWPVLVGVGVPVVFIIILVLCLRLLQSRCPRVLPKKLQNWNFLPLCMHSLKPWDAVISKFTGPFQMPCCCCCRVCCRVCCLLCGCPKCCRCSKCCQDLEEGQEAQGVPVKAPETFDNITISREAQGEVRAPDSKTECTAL

“v18993: anti-NaPi2b reference humanized antibody lifastuzumab [reference compound]”: the “Bmax (APC-A GeoMean), Cyno NaPi2b” value in the assay on cynomolgus NaPi2b was 1,557 APC-A GeoMean.
With “v16955: Palivizumab (anti-RSV), negative control antibody in the competition binding”, the “% Inhibition vs. irrelevant mAb, labeled detection antibody v16955 (negative control)” value with human NaPi2b (labeled detection antibody v16955 1 μg/mL) is listed as 0%. For the same substance, the “% Inhibition vs. irrelevant mAb, labeled detection antibody v18992 (MX35)” value in the assay with human NaPi2b (labeled detection antibody v18992 1 μg/mL) was found to be 0%. The “% Inhibition vs. irrelevant mAb, labeled detection antibody v18993 (lifastuzumab)” value with human NaPi2b (labeled detection antibody v18993 1 μg/mL) stood at 0%. For the same substance, in the assay with human NaPi2b (labeled detection antibody v23855 1 μg/mL), the “% Inhibition vs. irrelevant mAb, labeled detection antibody v23855” value turned out to be 0%.
Turning to “v22277-DL1: non-targeted control ADC of palivizumab v22277 with MC-GGFG-AM-DXd1 (DL1), DAR 8”, the EC50 with OVCAR-3 cells, in the assay on IGROV-1 cells and in the assay with HCC-78 cells was more than 50 nM each time.
For the substance “v22277-DL3: non-targeted control ADC of palivizumab v22277 with MC-VC-PABC-MMAE (DL3), DAR 4”, the EC50 with OVCAR-3 cells was 9.4 nM; in the assay with IGROV-1 cells, 7.02 nM; in the assay with HCC-78 cells, 11.4 nM.
As for “v18992: anti-NaPi2b reference humanized antibody MX35 [reference compound]”, the “Bmax (APC-A GeoMean), Cyno NaPi2b” value with cynomolgus NaPi2b is reported as 2,365 APC-A GeoMean.
